Measurements reported in US20220298510A1, “COMPOUNDS AND METHODS FOR INHIBITING CANCERS VIA REST INHIBITION” (Icahn School of Medicine at Mount Sinai, priority 2019, published 2022).

Legend:
ATRX IFF NB cells = experiment: Proliferation (Incucyte, percent confluence normalized to DMSO) of ATRX IFF NB cells; format: cell-based, human; details: proliferation IC50 curves, day 12 (FIG. 11a)
From the text: GAPDH used as a loading control. […] Percent confluence normalized to DMSO for each condition and plotted at day 12. Values normalized mean n±SD (n=3). Statistical significance assessed using student's unpaired t-test with each cell line compared to DMSO (* indicates p<0.05). […] Percent AV positive cells plotted, values are mean n±SD (n=3). Statistical significance assessed using student's unpaired t-test with each cell line compared to DMSO (* indicates p<0.05). (d) Tumor volume measurements of CHLA-90 cells subcutaneously injected into immunocompromised mice. Mice were treated with vehicle or UNC1999 at 300 mg/kg of body weight for 25 days, values mean n±SEM (n=9). Statistical significance assessed using student's unpaired t-test compared to vehicle (* indicates p<0.001). […]
Proliferation evaluated using the […] […] IC50 for each cell line calculated in Prism. […] Statistical significance assessed using student's unpaired t-test with each cell line compared to DMSO (* indicates p<0.05). […] Proliferation assessed in the same manner as (a). Statistical significance assessed using student's unpaired t-test with each cell line compared to DMSO (* indicates p<0.05). […] AV staining assessed in the same manner as (b). […] Proliferation assessed in the same manner as (a). […] AV staining assessed in the same manner as (b).
GAPDH used as a loading control. […] Proliferation evaluated using the Incucyte™ Life-Cell Imaging System. […]

CHLA-90 xenografts = CHLA-90 xenografts in immunocompromised mice; format: in vivo; details: 300 mg/kg of body weight, 25 days
From the text: GAPDH used as a loading control. […] Percent confluence normalized to DMSO for each condition and plotted at day 12. Values normalized mean n±SD (n=3). Statistical significance assessed using student's unpaired t-test with each cell line compared to DMSO (* indicates p<0.05). […] Percent AV positive cells plotted, values are mean n±SD (n=3). Statistical significance assessed using student's unpaired t-test with each cell line compared to DMSO (* indicates p<0.05). (d) Tumor volume measurements of CHLA-90 cells subcutaneously injected into immunocompromised mice. Mice were treated with vehicle or UNC1999 at 300 mg/kg of body weight for 25 days, values mean n±SEM (n=9). Statistical significance assessed using student's unpaired t-test compared to vehicle (* indicates p<0.001). (e) Tumor weight measurement from xenografts collected in (d), values mean n±SEM (n=9). Images of excised tumors underneath (* indicates p<0.001). (f) Immunoblots for H3K27me3 from acid extracted histones derived from vehicle and treated xenografts. H4 and histones used as loading controls.

| Compound | sensitivity of ATRX IFF NB cells compared to other NB subtypes (ATRX IFF NB cells) | tumor growth and volume compared to vehicle-treated tumors (CHLA-90 xenografts) |
| --- | --- | --- |
| CCN(c1cc(-c2ccc(CN3CCOCC3)cc2)cc(C(=O)NCc2c(C)cc(C)[nH]c2=O)c1C)C1CCOCC1 [EPZ-6438, Tazemetostat] | 5-10 fold |  |
| CCCc1cc(C)[nH]c(=O)c1CNC(=O)c1cc(-c2ccc(N3CCN(C(C)C)CC3)nc2)cc2c1cnn2C(C)C [UNC1999] |  | significant reduction |
